Measurements: publication PMC9143562, “Hydrophilic CO-Releasing Material of PEGlyated Ruthenium Carbonyl Complex” (Materials, 2022)

Assays:
[1] = cited from earlier work
[2] = system: acute hepatic ischemia-reperfusion injury; parameters: method as in PMID 20444253, PMID 21270767; conditions: rats; serum AST/ALT, liver histology score; cited from earlier work
[3] = human plasma; cited from earlier work
[4] = logP by flask-shaking method (n-octanol/water, UV-vis); format: physicochemical; conditions: for logP: oil-water partition coefficient, n-octanol/water, by UV-vis
Description: To identify the structural features of CO-RMs that govern the CO releasing behaviour, the CO release kinetics of 4–15 were correlated to the corresponding M-CO band and lipophilicity in Table 2. Firstly, the oil-water partition coefficient logP values of complexes were measured by the “flask-shaking” method with n-octanol and water, respectively. […] The water-solubility of these sawhorse ruthenium complexes mainly depend on both the axial glycol amino esters and bridging carboxylate, respectively. […]
4. Water-solubility Measured by the ﬂask - shaking method
The lipophilicity of complexes was measured by the ﬂask- shaking method where n-octanol and ultrapure water were used as the organic and aqueous phase respectively. First, make the pre saturated of oil-water two phase. Then the tested complex was dissolved in the isolated organic phase at a concentration of 1mg/mL, take 2 mL of liquld and 8mL aqueous phase was joined, the mixture was swirled for 12h at room temperature. The solution was then centrifuged, and the amounts of complex in organic layers were determined by UV-vis. Drawing standard curve and determination of oil-water partition coefficient. […]
5.4 UV-vis spectra of Lipophilicity (log Po/w)
Table S3. Stand curve measurement and calculation of Log P
Entry Standard curve equation Correlation coefficient(R2) […]

[5] = system: myoglobin (lyophilised horse heart); test: Photo-activated CO release, myoglobin assay; conditions: CO release half-life, 60 µM CO-RM, LED-UV 365 nm, PBS pH 7.4
Description: The CO release activity of each CO-RM […] was measured with the “golden standard” of myoglobin assay. Firstly, sodium dithionite was added to reduce myoglobin to deoxy-myoglobin (deoxyMb) in PBS (pH = 7.4) at 37.8 °C. A stock solution of CO-RM was added and then activated by LED-UV radiation at 365 nm, releasing CO […]. The change of deoxyMb to carbonmonoxy-myoglobin (MbCO) was monitored by UV-vis spectroscopy. […] The half-lives of CO release rate of 4 at 60 µM is 166 s, 40 µM is 172 s, and 20 µM is 267 s. […]
3. CO-Release Measured by Standard Myoglobin Assay
The release of CO from the metal carbonyl compounds was studied by measuring the conversion of deoxy-myoglobin (deoxy-Mb) to carboxy-myoglobin (Mb-CO). The amount of Mb-CO formed was quantified by measuring the absorbance at 540 nm. […] A 2 mL quantity of this was measured to obtain a deoxy-Mb spectrum and then bubbled with CO to get a Mb-CO spectrum. […] The concentration of myoglobin in the stock solution was calculated from the maximal absorption peak of the Mb-CO solution at 540 nm (Equation 1).
Equation 1. Equation for calculating total myoglobin concentration in a saturated solution of Mb-CO; ε = extinction coefficient of Mb-CO=15.4 mM-1cm-1, OD540 = absorbance of Mb-CO solution […]
Intermediate concentrations of Mb-CO are calculated from the OD540. […] The new extinction coefficient was calculated (Equation 2). […]

[C-]#[O+].[C-]#[O+].[C-]#[O+].[C-]#[O+].[C-]#[O+].[C-]#[O+].[Cl][Ru][Cl].[Cl][Ru][Cl] [CO-RM-02, [Ru(CO)3Cl2]2]
solubility in aqueous systems [1]: poor solubility
effect on acute hepatic ischemia-reperfusion injury [2]: attenuated acute hepatic ischemia-reperfusion injury in rats

NCC(=O)O.[C-]#[O+].[C-]#[O+].[C-]#[O+].[Cl][Ru] [CO-RM-03, [Ru(CO)3Cl(glycinate)]]
half-life of CO release [3]: 3.6 min

[Ru2(CO)4(µ2-ŋ2-O2C-C14H9)2 (ŋ1-NH2CH2C(=O)OCH2CH2OCH3)2] [CO-RM 15]
logP [4]: too hydrophobic to be evaluated

[Ru2(CO)4(µ2-ŋ2-O2C-p-ClC6H5)2 (ŋ1-NH2CH2C(=O)OCH2CH2OCH3)2] [CO-RM 13]
t1/2, 60 µM [5]: 16.1 min
Coctanol ([4]; concentration in n-octanol phase, UV-vis): 0.9201 mmol/L
Cwater ([4]; concentration in water phase): 0.05055 mmol/L
logP [4]: 1.26
